The values below come from PubChem BioAssay AID623998 (Broad Institute, 2012).

“And” between values parts separate entries of the source, which are not always exact repeats. Equal entries are not always repeated. Inconclusive results are not listed. The source made the active and inactive calls.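 The calls were made as follows: active = compound whose fitted half-maximal dose is at most twice its top tested dose in every repeat; inconclusive = mixed calls across repeats, weak flat response, or unreliable curve fit; inactive = all repeats flat, too weak, or wrong direction.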

The first test deals with Glycogen synthase kinase-3 beta (Homo sapiens) (UniProt P49841). Description: inhibition of human GSK3beta kinase activity – biochemical, ADP-Glo luminescence, dry powder samples, SAR follow-up (AID 623998). The note with it: GSK3beta ADP-Glo luminescence kinase assay, 60 min. A general note: In ADP-Glo the light output rises with the ADP produced.
Glycogen synthase kinase-3 beta (Homo sapiens), sequence (P49841 whole entry, looked up): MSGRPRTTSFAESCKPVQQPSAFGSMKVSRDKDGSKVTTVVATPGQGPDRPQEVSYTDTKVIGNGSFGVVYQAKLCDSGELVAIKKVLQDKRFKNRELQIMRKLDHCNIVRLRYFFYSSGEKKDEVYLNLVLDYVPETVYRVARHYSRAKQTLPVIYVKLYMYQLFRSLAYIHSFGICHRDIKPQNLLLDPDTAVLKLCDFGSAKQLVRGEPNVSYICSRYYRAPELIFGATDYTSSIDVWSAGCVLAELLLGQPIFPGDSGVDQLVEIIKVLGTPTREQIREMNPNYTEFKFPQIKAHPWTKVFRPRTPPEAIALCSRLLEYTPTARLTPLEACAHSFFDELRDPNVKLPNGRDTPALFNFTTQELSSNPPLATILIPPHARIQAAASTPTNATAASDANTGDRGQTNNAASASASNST
As usually defined, the AC50 is the concentration giving half of the maximal activity seen. Take `Cc1[nH]nc2c1C(c1ccccc1Br)C1=C(CC(C)(C)CC1=O)N2` (configuration not stated): the AC50 was 180 nM.
On the same count and under the same terms, in the case of `Cc1[nH]nc2c1C(c1cccc(C(F)(F)F)c1)C1=C(CC(C)(C)CC1=O)N2` (configuration not stated) it was 199 nM; in that of `Cc1[nH]nc2c1C(c1ccc(F)cc1Cl)C1=C(CC(C)(C)CC1=O)N2` (configuration not stated), 2290 nM; in that of `CC1(C)CC(=O)C2=C(C1)Nc1n[nH]c(C(F)(F)F)c1C2c1cc(F)ccc1OC(F)(F)F` (configuration not stated), 403 nM.
Same read-out and setting: in the case of `CC1(C)CC(=O)/C(=C\c2cccc(F)c2C(F)(F)F)C(=Nc2cc(C(F)(F)F)[nH]n2)C1` it was 2630 nM; in that of `Cc1[nH]nc2c1C(c1cccc(F)c1)C1=C(CC(C)(C)CC1=O)N2` (configuration not stated), 540 nM.
On the same count and under the same terms, the figure for `COc1ccccc1C1C2=C(CCCC2=O)Nc2n[nH]c(C)c21` (configuration not stated) is 3420 nM; for `COc1ccccc1C1C2=C(CC3(CCCCC3)CC2=O)Nc2n[nH]c(C)c21` (configuration not stated) it is 278 nM; for `Cc1[nH]nc2c1C(C)(c1ccccc1)C1=C(CC(C)(C)CC1=O)N2` (configuration not stated) it is 308 nM.
On to `CC(C)c1ccc(-c2nn(-c3ccccc3)cc2/C=N/O)cc1`, for which the AC50 is 737 nM.
Regarding `Cc1ccc(-c2nn(-c3ccccc3)cc2/C=N/O)cc1`, the AC50 is 313 nM.
On the same count and under the same terms, the figure for `COc1ccccc1C1C2=C(CCC(C)(C)C2=O)Nc2n[nH]c(C)c21` (configuration not stated) is 515 nM; for `Cc1[nH]nc2c1[C@H](c1cccs1)C1=C(CC(C)(C)CC1=O)N2` it is 11600 nM; for `CCc1[nH]nc2c1C(c1ccccc1OC)C1=C(CC(C)(C)CC1=O)N2` (configuration not stated) it is 83.3 nM.
On the same count and under the same terms, in the case of `Cc1[nH]nc2c1[C@@H](c1cccs1)C1=C(CC(C)(C)CC1=O)N2` it was 1910 nM; in that of `CC(C)COc1ccc(-c2nn(-c3ccccc3)cc2/C=N/O)cc1`, 3080 nM.
Same read-out and setting: in the case of `Cc1[nH]nc2c1C(c1ccc3c(c1)OCO3)C1=C(CC(C)(C)CC1=O)N2` (configuration not stated) it was 4610 nM.
With `O/N=C/c1cn(-c2ccccc2)nc1-c1ccc(Cl)cc1`, the half-maximal activity concentration (AC50) was 45.2 nM.
The same measure, in the same setting: the figure for `COc1ccccc1/C=C1\C(=O)CC(C)(C)CC1=Nc1cc(C(F)(F)F)[nH]n1` is 7500 nM.
Same read-out and setting: the figure for `Cc1[nH]nc2c1C(c1ccc(C#N)cc1)C1=C(CC(C)(C)CC1=O)N2` (configuration not stated) is 10400 nM.
Same read-out and setting: in the case of `CC1(C)CC(=O)C2=C(C1)Nc1n[nH]c(C(F)(F)F)c1C2c1ccccc1F` (configuration not stated) it was 184 nM; in that of `Cc1[nH]nc2nc3c(c(-c4cccs4)c12)C(=O)CC(C)(C)C3`, 28100 nM; in that of `CC1(C)CC(=O)C2=C(C1)Nc1n[nH]c(C(F)(F)F)c1C2c1ccccc1` (configuration not stated), 35.7 nM.
Regarding `Cc1[nH]nc2c1C(c1cccc(Cl)c1)C1=C(CC(C)(C)CC1=O)N2` (configuration not stated), the AC50 is 919 nM.
With `Cc1[nH]nc2c1C(c1ccccc1C(F)(F)F)C1=C(CC(C)(C)CC1=O)N2` (configuration not stated), the concentration at half-maximal activity (AC50) is 42.5 nM.
On to `COc1ccccc1[C@H]1C2=C(CC(C)(C)CC2=O)Nc2n[nH]c(C(F)(F)F)c21`, for which the AC50 was 1590 nM.
The same measure, in the same setting: in the case of `Cc1cccc(C2C3=C(CC(C)(C)CC3=O)Nc3n[nH]c(C)c32)c1` (configuration not stated) it was 614 nM.
The same measure, in the same setting: in the case of `O/N=C/c1cn(-c2ccccc2)nc1-c1ccccc1` it was 2930 nM.
On the same count and under the same terms, the figure for `Cc1[nH]nc2c1[C@H](c1ccccc1C(F)(F)F)C1=C(CC(C)(C)CC1=O)N2` is 5570 nM.
For the compound `COc1cccc(-c2nn(-c3ccccc3)cc2/C=N/O)c1`, the AC50 was 1760 nM.
Still for that read-out and setting: the figure for `Cc1[nH]nc2c1C(c1ccc(Cl)cc1)C1=C(CC(C)(C)CC1=O)N2` (configuration not stated) is 4440 nM; for `Cc1[nH]nc2c1C(c1cccnc1)C1=C(CC(C)(C)CC1=O)N2` (configuration not stated) it is 408 nM.
With `CC1(C)CC(=O)C2=C(C1)Nc1n[nH]c(C(F)(F)F)c1C2c1c(F)cccc1F` (configuration not stated), the AC50 was 87.5 nM.
Still for that read-out and setting: the figure for `O/N=C/c1cn(-c2ccccc2)nc1-c1ccc(F)cc1` is 440 nM; for `Cc1[nH]nc2c1C(c1ccccc1Cl)C1=C(CC(C)(C)CC1=O)N2` (configuration not stated) it is 300 nM; for `Cc1[nH]nc2c1C(c1ccc(Br)cn1)C1=C(CC(C)(C)CC1=O)N2` (configuration not stated) it is 4990 nM.
For `Cc1[nH]nc2c1C(c1ccccn1)C1=C(CC(C)(C)CC1=O)N2` (configuration not stated), the AC50 was 1020 nM.
Still for that read-out and setting: in the case of `Cc1[nH]nc2c1C(c1cccs1)C1C(=O)CC(C)(C)CC1=N2` (configuration not stated) it was 627 nM; in that of `Cc1[nH]nc2c1C(c1cccc3nonc13)C1=C(CC(C)(C)CC1=O)N2` (configuration not stated), 50 nM.
Same read-out and setting: the figure for `COc1ccccc1C1C2=C(CC(C)(C)CC2=O)Nc2n[nH]c(C)c21` (configuration not stated) is 124 nM; for `COc1ccccc1C1C2=C(CC(C)(C)CC2=O)Nc2n[nH]c(C(F)(F)F)c21` (configuration not stated) it is 13.2 nM and 128 nM.
Still for that read-out and setting: in the case of `COc1ccccc1C1C2=C(CC(C)(C)CC2=O)Nc2[nH]ncc21` (configuration not stated) it was 122 nM; in that of `O/N=C/c1cn(-c2ccccc2)nc1-c1ccc2c(c1)OCCO2`, 577 nM; in that of `COc1ccc(-c2nn(-c3ccccc3)cc2/C=N/O)cc1OC`, 617 nM.
For the compound `Cc1[nH]nc2c1C(c1ccn[nH]1)C1=C(CC(C)(C)CC1=O)N2` (configuration not stated), the half-maximal activity concentration (AC50) was 1880 nM.
`Cc1[nH]nc2c1[C@@H](c1ccccc1C(F)(F)F)C1=C(CC(C)(C)CC1=O)N2`: the AC50 is 37 nM.
Still for that read-out and setting: the figure for `CC1(C)CC(=O)C2=C(C1)Nc1n[nH]c(C(F)(F)F)c1C2c1ccc(F)cc1C(F)(F)F` (configuration not stated) is 173 nM; for `CC1(C)CC(=O)C2=C(C1)Nc1n[nH]c(C(F)(F)F)c1C2c1cc(F)ccc1C(F)(F)F` (configuration not stated) it is 51.3 nM.
With `COc1ccccc1C1C2=C(CC(C)(C)CC2=O)Nc2n[nH]c(C(C)(C)C)c21` (configuration not stated), the AC50 was 834 nM.
On the same count and under the same terms, the figure for `Cc1ccc(C2C3=C(CC(C)(C)CC3=O)Nc3n[nH]c(C)c32)cc1` (configuration not stated) is 2160 nM; for `COc1ccccc1C1C2=C(CC(C)(C)CC2=O)Nc2n[nH]c(C(C)C)c21` (configuration not stated) it is 415 nM; for `Cc1[nH]nc2c1C(C)C1=C(CC(C)(C)CC1=O)N2` (configuration not stated) it is 534 nM.
For `CC1(C)CC(=O)C2=C(C1)Nc1n[nH]c(C(F)(F)F)c1C2c1cc(F)ccc1F` (configuration not stated), the AC50 was 451 nM.
On the same count and under the same terms, the figure for `COc1ccccc1C1C(C(C)=O)=C(C)Nc2n[nH]c(C)c21` (configuration not stated) is 3000 nM; for `Cc1[nH]nc2c1C(C1CC1)C1=C(CC(C)(C)CC1=O)N2` (configuration not stated) it is 3050 nM.
In the case of `Cc1[nH]nc2c1C(c1cccc(C#N)c1)C1=C(CC(C)(C)CC1=O)N2` (configuration not stated), the AC50 was 52.3 nM.
Turning to `Cc1[nH]nc2c1C(c1ccc(C(F)(F)F)cc1)C1=C(CC(C)(C)CC1=O)N2` (configuration not stated), the AC50 is 9290 nM.
On to `COc1ccccc1[C@@H]1C2=C(CC(C)(C)CC2=O)Nc2n[nH]c(C(F)(F)F)c21`, for which the AC50 was 23.8 nM.
In the case of `Cc1[nH]nc2c1C(c1ccccc1C#N)C1=C(CC(C)(C)CC1=O)N2` (configuration not stated), the AC50 was 134 nM.
Turning to `CC1(C)CC(=O)/C(=C\c2ccccc2C(F)(F)F)C(=Nc2cc(C(F)(F)F)[nH]n2)C1`, the AC50 is 3110 nM.
The same measure, in the same setting: in the case of `O=S(=O)(Nc1ccccn1)c1ccc(N=Cc2c(O)[nH]c3ccc4ncsc4c23)cc1` it was 807 nM; in that of `Cc1ccccc1C1C2=C(CC(C)(C)CC2=O)Nc2n[nH]c(C)c21` (configuration not stated), 455 nM; in that of `CSc1ccccc1C1C2=C(CC(C)(C)CC2=O)Nc2n[nH]c(C)c21` (configuration not stated), 32.4 nM.
In the case of `Cc1[nH]nc2c1C(c1ccc(F)cc1)C1=C(CC(C)(C)CC1=O)N2` (configuration not stated), the AC50 is 2960 nM.
Still for that read-out and setting: the figure for `COc1ccc(C2C3=C(CC(C)(C)CC3=O)Nc3n[nH]c(C)c32)cc1` (configuration not stated) is 14700 nM; for `COc1cccc(C2C3=C(CC(C)(C)CC3=O)Nc3n[nH]c(C)c32)c1` (configuration not stated) it is 1160 nM.
Turning to `COc1ccccc1C1C2=C(CC(C)(C)CC2=O)Nc2n[nH]c(-c3ccccc3)c21` (configuration not stated), the AC50 was 1550 nM.
Consider `Cc1[nH]nc2c1C(c1ccc(Cl)s1)C1=C(CC(C)(C)CC1=O)N2` (configuration not stated), for which the AC50 is 1140 nM.
Still for that read-out and setting: in the case of `Cc1[nH]nc2c1C(c1ccsc1)C1=C(CC(C)(C)CC1=O)N2` (configuration not stated) it was 1370 nM.

Staying with this test, now noted: GSK3beta ADP-Glo luminescence kinase assay, 60 min; at 46 µM (top of the series).
As to `COc1ccccc1C1C2=C(CC(C)(C)CC2=O)Nc2ccccc21` (configuration not stated), the “activity, negative = inhibition” value was “inactive”.
For the compound `COc1ccc(-c2nn(-c3ccccc3)cc2C(=O)O)cc1`, the “activity, negative = inhibition” value is “inactive”.
For the compound `CN(C)Cc1cn(-c2ccccc2)nc1-c1ccccc1`, the “activity, negative = inhibition” value was “inactive”.
